The assay concerns the target T1, Recombinant ι-CgsA (Pseudoalteromonas carrageenovora, UniProt A0A2K4X859).
T1 construct: gene PCARR_a1089; without signal peptide (cleavage Ala22/Gln23 predicted in the Q3IKL4 ortholog), N-terminal 6 His-tag, pFO4 vector, E. coli BL21(DE3); primers for cloning deduced from the P. haloplanktis TAC 125 gene
The assay can be described thus: methylumbelliferone release, absorbance at […] nm; hyperbolic regression. In kind it is biochemical. As to conditions: 35 °C, pH 8.3, 50 mM Tris-HCl, 200 mM NaCl; MUFS 5.2 to 206.5 μM; preliminary; read-out: Apparent Km.

T1 sequence (A0A2K4X859 entry or part of it): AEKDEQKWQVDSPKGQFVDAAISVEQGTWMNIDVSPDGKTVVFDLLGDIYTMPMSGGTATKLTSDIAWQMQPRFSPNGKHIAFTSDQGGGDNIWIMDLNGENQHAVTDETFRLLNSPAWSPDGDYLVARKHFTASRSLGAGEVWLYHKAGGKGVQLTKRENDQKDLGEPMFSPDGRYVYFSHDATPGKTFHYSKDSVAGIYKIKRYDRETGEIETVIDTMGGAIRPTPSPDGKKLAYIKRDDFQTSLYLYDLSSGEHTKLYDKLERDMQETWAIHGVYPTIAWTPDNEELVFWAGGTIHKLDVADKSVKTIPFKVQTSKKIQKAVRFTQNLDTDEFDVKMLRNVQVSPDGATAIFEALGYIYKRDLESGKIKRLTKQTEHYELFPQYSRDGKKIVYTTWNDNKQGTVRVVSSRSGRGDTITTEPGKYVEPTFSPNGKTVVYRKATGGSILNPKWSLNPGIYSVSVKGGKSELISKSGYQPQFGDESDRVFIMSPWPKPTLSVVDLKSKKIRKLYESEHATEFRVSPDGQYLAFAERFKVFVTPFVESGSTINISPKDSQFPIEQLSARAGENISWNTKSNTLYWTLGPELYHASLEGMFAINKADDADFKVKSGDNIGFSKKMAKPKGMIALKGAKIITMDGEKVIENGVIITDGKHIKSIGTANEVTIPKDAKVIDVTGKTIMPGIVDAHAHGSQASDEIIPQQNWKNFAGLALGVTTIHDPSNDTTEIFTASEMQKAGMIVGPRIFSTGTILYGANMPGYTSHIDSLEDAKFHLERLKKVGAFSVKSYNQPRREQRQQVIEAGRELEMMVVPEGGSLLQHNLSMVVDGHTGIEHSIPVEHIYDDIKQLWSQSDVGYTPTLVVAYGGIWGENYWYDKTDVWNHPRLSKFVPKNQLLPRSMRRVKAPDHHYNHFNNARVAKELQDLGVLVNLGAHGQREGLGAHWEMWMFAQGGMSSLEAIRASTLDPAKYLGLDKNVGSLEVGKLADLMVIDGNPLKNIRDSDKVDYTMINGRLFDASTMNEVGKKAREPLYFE

Turning to `Cc1cc(=O)oc2cc(OS(=O)(=O)O)ccc12` [MUFS], the Km came out at 13.4 ± 4.9 µM.

Source of the values: paper PMC4144425, “Discovery of a novel iota carrageenan sulfatase isolated from the marine bacterium Pseudoalteromonas carrageenovora” (Frontiers in Chemistry, 2014).
